Results on 13 compounds are retold here after US20140206682A1, “COMPOUNDS AND COMPOSITIONS AS PDGFR KINASE INHIBITORS” (NOVARTIS PHARMACEUTICALS UK LIMITED, priority 2011, published 2014).

This assay relates to PDGFR. The experiment in a line: Rat A10 cell proliferation assay. Type of assay: cell-based. The note with it: Table 1; Rat A10 cells, recombinant rat PDGF-BB, CellTiter-Glo after 68 hours. A digest of the protocol:
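Rat A10 cells in DMEM with 1% FBS and 10 ng/mL rat PDGF-BB, preincubated 4 h at 37 °C, then exposed to 3-fold serially diluted compound for 68 h. Viability/proliferation read as CellTiter-Glo luminescence.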
With `COC[C@H](NC(=O)c1ccc(F)c(NC(=O)c2cnc3ccccn23)c1)[C@@H](O)c1ccccc1` [F117, N-(2-fluoro-5-{[(1S,2S)-1-hydroxy-3-methoxy-1-phenylpropan-2-yl]carbamoyl}phenyl)imidazo[1,2-a]pyridine-3-carboxamide], the IC50 turned out to be 13 nM.
`COC[C@H](NC(=O)c1ccc(F)c(NC(=O)c2cnc3ccccn23)c1)[C@@H](O)c1ccccc1` [F118, N-(2-fluoro-5-{[(1S,2S)-1-hydroxy-3-methoxy-1-phenylpropan-2-yl]carbamoyl}phenyl)imidazo[1,2-a]pyridine-3-carboxamide]: the IC50 came to 41 nM.
The figure for `O=C(NCC(O)c1ccccc1Cl)c1ccc(F)c(NC(=O)c2cnc3ccccn23)c1` (stereo not shown) [F120, N-(5-{[2-(2-chlorophenyl)-2-hydroxyethyl]carbamoyl}-2-fluorophenyl)imidazo[1,2-a]pyridine-3-carboxamide] is 36 nM.
Turning to `O=C(NC[C@@H](O)c1ccc(Cl)cc1)c1ccc(F)c(NC(=O)c2cnc3ccccn23)c1` [F121, N-(5-{[(2S)-2-(4-chlorophenyl)-2-hydroxyethyl]carbamoyl}-2-fluorophenyl)imidazo[1,2-a]pyridine-3-carboxamide], the IC50 came to 13 nM.
For `O=C(NC[C@@H](O)c1ccccc1F)c1ccc(F)c(NC(=O)c2cnc3ccccn23)c1` [F122, N-(2-fluoro-5-{[(2S)-2-(2-fluorophenyl)-2-hydroxyethyl]carbamoyl}phenyl)imidazo[1,2-a]pyridine-3-carboxamide] the value was 60 nM; for `O=C(N[C@@H](CO)[C@@H](O)c1ccccc1)c1ccc(F)c(NC(=O)c2cnc3ccccn23)c1` [F123, N-(5-{[(1S,2S)-1,3-dihydroxy-1-phenylpropan-2-yl]carbamoyl}-2-fluorophenyl)imidazo[1,2-a]pyridine-3-carboxamide], 44 nM; for `C[C@@]1(O)CCCC[C@@H]1NC(=O)c1ccc(F)c(NC(=O)c2cnc3ccccn23)c1` [F124, N-(2-fluoro-5-{[(1S,2R)-2-hydroxy-2-methylcyclohexyl]carbamoyl}phenyl)imidazo[1,2-a]pyridine-3-carboxamide], 187 nM.
`O=C(N[C@H]1CCSC[C@H]1O)c1ccc(F)c(NC(=O)c2cnc3ccccn23)c1` [F125, N-(2-fluoro-5-{[(3S,4S)-3-hydroxythian-4-yl]carbamoyl}phenyl)imidazo[1,2-a]pyridine-3-carboxamide]: the IC50 was found to be 98 nM.
For `COC[C@H](NC(=O)c1ccc(F)c(NC(=O)c2cnc3cc(C)ccn23)c1)[C@@H](O)c1ccccc1` [F126, N-(2-fluoro-5-{[(1S,2S)-1-hydroxy-3-methoxy-1-phenylpropan-2-yl]carbamoyl}phenyl)-7-methylimidazo[1,2-a]pyridine-3-carboxamide], the IC50 was 8 nM.
Regarding `Cc1ccn2c(C(=O)Nc3cc(C(=O)N[C@@H](CO)[C@@H](O)c4ccccc4)ccc3F)cnc2c1` [F127, N-(5-{[(1S,2S)-1,3-dihydroxy-1-phenylpropan-2-yl]carbamoyl}-2-fluorophenyl)-7-methylimidazo[1,2-a]pyridine-3-carboxamide], the IC50 is 86 nM.
Regarding `Cn1nccc1-c1ccn2c(C(=O)Nc3cc(C(=O)N[C@@H](CO)[C@@H](O)c4ccccc4)ccc3F)cnc2c1` [F128, N-(5-{[(1S,2S)-1,3-dihydroxy-1-phenylpropan-2-yl]carbamoyl}-2-fluorophenyl)-7-(1-methyl-1H-pyrazol-5-yl)imidazo[1,2-a]pyridine-3-carboxamide], the IC50 turned out to be 56 nM.
As for `COC[C@H](NC(=O)c1ccc(F)c(NC(=O)c2cnc3cc(-c4ccnn4C)ccn23)c1)[C@@H](O)c1ccccc1` [F129, N-(2-fluoro-5-{[(1S,2S)-1-hydroxy-3-methoxy-1-phenylpropan-2-yl]carbamoyl}phenyl)-7-(1-methyl-1H-pyrazol-5-yl)imidazo[1,2-a]pyridine-3-carboxamide], the IC50 worked out at 14 nM.
Consider `Cn1nccc1-c1ccn2c(C(=O)Nc3cc(C(=O)N[C@H](CO)[C@H](O)c4ccccc4)ccc3F)cnc2c1` [F130, N-(5-{[(1R,2R)-1,3-dihydroxy-1-phenylpropan-2-yl]carbamoyl}-2-fluorophenyl)-7-(1-methyl-1H-pyrazol-5-yl)imidazo[1,2-a]pyridine-3-carboxamide], for which the IC50 worked out at 104 nM.

Broadly, the IC50 is the point on the concentration scale where inhibition reaches its midpoint.
